ChEMBL document CHEMBL6134906, “Design, Synthesis, and Biological Evaluation of Selective STING Synergists That Enhance cGAMP-STING Pathway Activation without Inherent Agonist Activity” (J Med Chem, 2025)

Columns and labels:
THP-1 = assay: Cytotoxicity against human THP-1 cells assessed as cell viability at 100 uM incubated for 48 hrs by CellTiter Glo luminescent cell viability assay relative to control; settings: THP-1, 48 h, read-out: Activity
[1] = target: Stimulator of interferon genes protein (Homo sapiens, UniProt Q86WV6)
Chain of Stimulator of interferon genes protein (Q86WV6 whole entry): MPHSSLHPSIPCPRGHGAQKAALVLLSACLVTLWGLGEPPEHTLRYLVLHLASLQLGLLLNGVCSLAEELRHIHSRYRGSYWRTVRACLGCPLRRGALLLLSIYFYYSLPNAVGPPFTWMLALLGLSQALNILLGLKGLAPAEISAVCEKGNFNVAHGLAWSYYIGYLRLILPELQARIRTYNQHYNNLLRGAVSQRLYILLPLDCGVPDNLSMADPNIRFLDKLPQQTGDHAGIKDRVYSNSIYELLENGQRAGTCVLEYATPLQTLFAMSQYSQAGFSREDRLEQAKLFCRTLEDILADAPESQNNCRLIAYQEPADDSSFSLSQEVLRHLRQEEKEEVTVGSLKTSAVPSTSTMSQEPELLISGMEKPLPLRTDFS

Structure (SMILES) | viability at 100 µM (THP-1) | IC50 [1]
COc1cc2c(=O)c3cccc(CC(=O)O)c3[nH]c2c(C)c1C | 91.4% | 28 µM
COc1cc2c(=O)c3cc(C)cc(C(=O)O)c3[nH]c2c(C)c1C | 98.4% | 5.95 µM
COc1cc2c(=O)c3cccc(C(=O)O)c3[nH]c2c(C)c1C | 92.1% | –
COc1cc2c(=O)c3ccccc3n(CC(=O)O)c2c(C)c1C | 86.9% | 8.26 µM
COc1cc2c(=O)c3cc(F)cc(CC(=O)O)c3[nH]c2c(C)c1C | 106% | –
Cc1ccc2c(=O)c3cc(F)cc(CC(=O)O)c3[nH]c2c1C | 99% | > 100 µM
COC(=O)Cn1c2ccc(C)cc2c(=O)c2cc(OC)c(C)c(C)c21 | 85.7% | 41.5 µM
COc1cc2c(=O)c3c(F)ccc(CC(=O)O)c3[nH]c2c(C)c1C | 87.8% | –
COc1cc(C(=O)O)c2[nH]c3c(C)c(C)c(OC)cc3c(=O)c2c1 | 96.5% | –
COc1cc2c(=O)c3cc(C)ccc3n(CC(=O)O)c2c(C)c1C | 105% | 25.1 µM
COc1ccc2[nH]c3c(C)c(C)ccc3c(=O)c2c1 | 98.8% | 13.7 µM
CCOC(=O)Cn1c2ccc(OC)cc2c(=O)c2cc(OC)c(C)c(C)c21 | 102% | 26 µM
COc1cc2c(=O)c3cc(Cl)cc(CC(=O)O)c3[nH]c2c(C)c1C | 82% | –
Cc1ccc2c(=O)c3cc(Cl)cc(CC(=O)O)c3[nH]c2c1C | 83.4% | > 100 µM
COc1cc(CC(=O)O)c2[nH]c3c(C)c(C)c(OC)cc3c(=O)c2c1 | 86.7% | 11.4 µM
COc1ccc2c(c1)c(=O)c1cc(OC)c(C)c(C)c1n2CC(=O)OCC(C)(C)C | 93.3% | 33.8 µM
Cc1ccc2c(=O)c3c(F)ccc(CC(=O)O)c3[nH]c2c1C | 103% | > 100 µM
COc1ccc2c(c1)c(=O)c1ccc(C)c(C)c1n2CC(=O)O | 95.8% | > 100 µM
COc1cc(C(=O)O)c2[nH]c3c(C)c(C)ccc3c(=O)c2c1 | 91.3% | > 100 µM
CCOC(=O)Cn1c2ccccc2c(=O)c2cc(OC)c(C)c(C)c21 | 93.5% | –
COc1cc2c(=O)c3c(Cl)ccc(CC(=O)O)c3[nH]c2c(C)c1C | 95.4% | –
Cc1ccc2c(=O)c3cccc(CC(=O)O)c3[nH]c2c1C | 93.4% | > 100 µM
COc1ccc2c(c1)c(=O)c1cc(OC)c(C)c(C)c1n2CC(=O)O | 83.3% | 11.1 µM
CCOC(=O)Cn1c2ccc(OC)cc2c(=O)c2ccc(C)c(C)c21 | 99.2% | > 100 µM
Cc1ccc2c(=O)c3c(Cl)ccc(CC(=O)O)c3[nH]c2c1C | 87.7% | > 100 µM
